According to patent publication US20240018105A1, “TROPOLONE DERIVATIVES AND TAUTOMERS THEREOF FOR IRON REGULATION IN ANIMALS” (Kinesid Therapeutics, Inc., priority 2019, published 2024):

Legend:
[1] = Ligand facilitated Fe(III) efflux from liposomes; settings: 10 uM ligand concentration; Table 1
Procedure: Assay 1: Ligand Facilitated Fe(III) Efflux from Liposomes Preparation of POPC (1-palmitoyl-2-oleoyl-sn-glycero-3-phosphocholine): Cholesterol Liposomes:
A 1M buffer solution of MES and Tris was prepared by dissolving 121.14 grams of Tris base and 213.25 grams of MES hydrate in 500 mL of MilliQ water and adjusted to pH7.0 using an […] HCl solution before bringing the total volume of the solution to 1 L. A 500 mM solution of FeCl3 was prepared by dissolving 0.811 grams of anhydrous FeCl3 in 10 mL of a 0.1M H2SO4 aqueous solution. Inside buffer is prepared in a 50 mL falcon tube, which was added with 25 mL of MilliQ water, 1.61 g of sodium citrate, 1.5 mL of the above FeCl3 solution, and 2.5 mL of the 1M MES/Tris HCl buffer (pH=7.0), and finally additional MilliQ H2O to bring to a 50 mL final volume.
Lipid solution is prepared by dissolving 206.9 mg of POPC (1-palmitoyl-2-oleoyl-sn-glycero-3-phosphocholine) and 8.6 mg of cholesterol in 10 mL of ethanol.
The lipids solution and the inside buffer solution are independently loaded into 10 mL luer lock syringes for loading into a virgin cartridge on a Precision Nanosystems NanoAssembler to prepare unilamaller liposomes with the following parameters: 7.5 mL total volume, 1.5:1 mixing ratio of inside buffer:lipids solution, 8 mL/min flow rate, ambient temperature, 0.35 mL start waste, and 0.05 mL of end waste. 7.5 mL of liposomes is harvested for purification on a 6-inch long, 1-inch diameter Sephadex G-50 column wetted in 600 mM sodium ascorbate and 50 mM MES/Tris HCl pH 7.0 buffer. This buffer also serves as the column running buffer. The crude liposome solution is carefully loaded with minimal volume of running buffer above the top of the Sphadex, allowed to enter the matrix, and the column is run with the continued addition of running buffer. The eluting liposomes, observed as a milky and turbid solution, are collected until free iron begins to elute (observed as a deep purple color) and the fractions are pooled for phosphorus quantitation.
Phosphorus content of eluted liposomes was determined by the process outlined below. 10 uL of liposome elution and a running buffer blank are added to a 5 mL glass vial containing 450 uL of a 8.9 M aqueous H2SO4 solution, the mixture is heated to 225° C. for 25 minutes in an aluminum heat block to hydrolyze POPC and cooled for 5 minutes. 200 ul of a 30% hydrogen peroxide aqueous solution is added to each vial and heated to 225° C. for 25 minutes. After cooling, the phosphorus content was determined using an Abcam Phosphate Assay kit, with buffer subtracted phosphorus levels determined against a standard curve of phosphate included in the kit. Liposomes were diluted to 1 mM phosphate in Running Buffer for use in assays after accounting for dilutions made during phospholipid digestion.
Determination of the rate at which a small molecule ligand liberates (transport) Ferric iron from liposomes is performed in clear bottom black 384-well plates on a Spectramax i3x set to read the absorbance at 562 nm in the kinetic mode every 60 seconds for 120 minutes. 1 uL of serially diluted DMSO stock solution of a small molecule ligand is added to wells in triplicate to give the final concentrations of 40, 20, 10, 5, 2.5, and 1.25 uM of the ligand at 80 μL final volume, followed by addition of 1 μL of 100 mM Ferrozine in water to give a final concentration of 1 mM ferrozine. 78 uL of liposomes diluted to 1 mM phosphorus in running buffer is added to wells as quickly as possible (using a digital repeater mulchannel pipette) with the kinetic read initiated as rapidly as possible after addition of liposomes to all wells. Typically, eight compounds at six concentrations are tested in triplicate simultaneously.
Upon completion of kinetic read, the data for individual reads is fitted to a single phase association regression with the equation Y=(Y0−YMax)^(−kX)+YMax, with Y being the 562 absorbance value and X being time in minutes. […]

[2] = system: DMT1-deficient Caco-2 cells; assay: shDMT1-Caco2 55Fe transport assay; type: cell-based; settings: Caco-2
Excerpt: Assay 2: shDMT1-Caco2 ^55Fe Transport Assay to Assess Ligand Ability in Transporting Fe (III)
Cells: DMT1-deficient Caco-2 cells (alias: “shDMT1,” or “4A” cells) were from Grillo et al. Science, 2017, and were cryopreserved in liquid nitrogen prior to use.
Reagents and supplies: ^55FeCl3 was obtained from PerkinElmer (Boston, MA). Iron(III) chloride (FeCl3) hexahydrate was obtained from Sigma. Dulbecco's Modified Eagle Medium (DMEM), fetal bovine serum (FBS), L-glutamine, MEM nonessential amino acids, penicillin-streptomycin, G418, formic acid, methanol, high-purity water, ammonium formate, dimethyl sulfoxide (DMSO) were purchased from Fisher Scientific. Propranolol, atenolol and carbutamide were obtained from Sigma-Aldrich Chemical Company (St Louis, MO). Scintillation cocktail was obtained from Research Product International Co. (Mount Prospect, IL). Stericup filter system (PES membrane, 0.22 um pore size) was purchased from Fisher Scientific. Coming item #3378 24-well transwell insert plates. Test articles: known compounds hinokitiol and deferiprone were purchased from Sigma. They are tested side by side with the small molecule ligands disclosed in this application. DMSO stocks (10 mM, which is 1,000× of the 10 μM dose level) of hinokitiol or test articles were prepared. A stock solution of 25 mM deferiprone in DMSO was prepared. The DMSO stock solutions were stored at −20° C. or below when not in use.
The growth medium was prepared according to the following table
Apical media (serum free DMEM, 10 mM MES, pH 6.5) was prepared. Apical master mix media was prepared fresh with the addition of 200 nM ^55Fe before each experiment. For the negative control propranolol and atenolol wells, 200 nM of non-radioactive iron was used.
The basolateral media was serum-free DMEM, 10 mM HEPES, 2% bovine serum albumin (BSA), pH 7.4.
For each experiment, cells were seeded into the 24-well transwell plates (0.5 mL of 50,000 cells/mL) with growth media. The basolateral companion plate was loaded with 1 mL of growth media. After 12-24 hr, both the apical and basolateral chamber were replaced with growth media. The apical media was changed 3× per week for 21-28 days, including a media change exactly 48 hr before the assay date.
On the assay day, the TEER values were measured and the average TEER values was obtained. Individual wells with TEER vaule >35% lower than the average of all wells were excluded. For the qualified wells, the apical layer (twice) and basolaterial (once) chambers were washed with PBS. The basolateral companion plate was then filled with 1 mL of basolateral media. Via addition down the side-wall of the apical well, 300 μL per well of the apical assay master mix, with the indicated dose level of test article, was added. Each dose was tested in triplicate. The plates were incubated (5% CO2 and 90% humidity at 37° C.) for the indicated timepoints. At each indicated timepoint, the basolateral supernatant was gently mixed via pipetting, and 200 μL of the basolateral supernatant was transferred to scintillation vials. To each scintillation counting vial, 5 mL of scintillation cocktail fluid was added. For each scintillation vial, the radioactivity (CPM) was determined with liquid scintillation counter LS6500. The counting time per vial was 5 min.
All raw CPM values are divided by the average value of blank DMSO solution to give a fold of change above the DMSO value. The mean and standard deviation of each compound at each concentration level and at each time point measured was calculated to give the fold change (fc) value.
For rank order compounds, the fc value of a ligand at 4 h time point is further divided by the fold change (fc) value of hinokitiol (a positive control compound) at an equimolar concentration to arrive at the FC (normalized fold of change) value. Data reported in Tables 1 and 2 is 4 hr time point FC=fc-ligand @ 3 uM/fc-hino @ 3 uM, and FC hino=1.

SMILES	Liposome Fe transport kefflux at 10 10 μM [1]	Caco2 shDMT1 transport FC @ 3 μM, 4h [2]
O=c1cccc(-c2cncc(F)c2F)cc1O [Ex.2, 4-(4,5-difluoropyridin-3-yl)-2-hydroxycyclohepta-2,4,6-trien-1-one]	0.1-5	0.01-0.5
N#Cc1cncc(-c2cccc(=O)c(O)c2)c1 [Ex.4, 5-(6-hydroxy-5-oxocyclohepta-1,3,6-trien-1-yl)nicotinonitrile]	0.1-5	0.01-0.5
COc1cc(-c2cccc(=O)c(O)c2)c(F)cn1 [Ex.6, 4-(5-fluoro-2-methoxypyridin-4-yl)-2-hydroxycyclohepta-2,4,6-trien-1-one]	7.5-10	0.01-0.5
COc1cc(-c2cccc(=O)c(O)c2)ccn1 [Ex.8, 2-hydroxy-4-(2-methoxypyridin-4-yl)cyclohepta-2,4,6-trien-1-one]	7.5-10	0.01-0.5
Cc1cnccc1-c1cccc(=O)c(O)c1 [Ex.9, 2-hydroxy-4-(3-methylpyridin-4-yl)cyclohepta-2,4,6-trien-1-one]	0.1-5	0.01-0.5
COc1cncc(-c2cccc(=O)c(O)c2)c1 [Ex.10, 2-hydroxy-4-(5-methoxypyridin-3-yl)cyclohepta-2,4,6-trien-1-one]	0.1-5	0.01-0.5
O=c1cccc(-c2cccnc2)cc1O [Ex.11, 2-hydroxy-4-(pyridin-3-yl)cyclohepta-2,4,6-trien-1-one]	0.1-5	0.01-0.5
COc1cc(-c2cccc(=O)c(O)c2)cnc1OC [Ex.12, 4-(5,6-dimethoxypyridin-3-yl)-2-hydroxycyclohepta-2,4,6-trien-1-one]	7.5-10	0.5-1
O=c1ccc(-c2cncc(F)c2)ccc1O [Ex.15, 5-(5-fluoropyridin-3-yl)-2-hydroxycyclohepta-2,4,6-trien-1-one]	5-7.5	0.01-0.5
O=c1cccc(-c2cncc(Cl)c2)cc1O [Ex.17, 4-(5-chloropyridin-3-yl)-2-hydroxycyclohepta-2,4,6-trien-1-one]	5-7.5	0.01-0.5
Cc1ccc(-c2cccc(=O)c(O)c2)cn1 [Ex.18, 2-hydroxy-4-(6-methylpyridin-3-yl)cyclohepta-2,4,6-trien-1-one]	0.1-5	0.01-0.5
COc1ccc(-c2cccc(=O)c(O)c2)cn1 [Ex.19, 2-hydroxy-4-(6-methoxypyridin-3-yl)cyclohepta-2,4,6-trien-1-one]	0.1-5	0.01-0.5
O=c1ccccc(-c2cncc(F)c2)c1O [Ex.24, 2-(5-fluoropyridin-3-yl)-7-hydroxycyclohepta-2,4,6-trien-1-one]	7.5-10	0.01-0.5
O=c1cccc(-c2cncnc2)cc1O [Ex.29, 2-hydroxy-4-(pyrimidin-5-yl)cyclohepta-2,4,6-trien-1-one]	5-7.5	0.01-0.5
COc1ncc(-c2cccc(=O)c(O)c2)cn1 [Ex.30, 2-hydroxy-4-(2-methoxypyrimidin-5-yl)cyclohepta-2,4,6-trien-1-one]	0.1-5	0.01-0.5
Cc1ncc(-c2ccc(O)c(=O)cc2)cn1 [Ex.33, 2-hydroxy-5-(2-methylpyrimidin-5-yl)cyclohepta-2,4,6-trien-1-one]	0.1-5	0.01-0.5
Cc1ncc(-c2ccccc(=O)c2O)cn1 [Ex.34, 2-hydroxy-3-(2-methylpyrimidin-5-yl)cyclohepta-2,4,6-trien-1-one]	0.1-5	0.01-0.5
Cc1ncc(-c2ccc(O)c(=O)cc2)c(C)n1.O=C(O)C(F)(F)F [Ex.35, 5-(2,4-dimethylpyrimidin-5-yl)-2-hydroxycyclohepta-2,4,6-trien-1-one]	7.5-10	0.01-0.5
Cc1ncc(-c2ccccc(=O)c2O)c(C)n1 [Ex.36, 3-(2,4-dimethylpyrimidin-5-yl)-2-hydroxycyclohepta-2,4,6-trien-1-one]	5-7.5	0.01-0.5
